Assay results: patent US20240016777A1, “COMPOUNDS AND METHODS FOR TREATING VIRAL INFECTIONS” (priority 2020, published 2024)

The compounds below were run against SARS-CoV-2 M^pro (Severe acute respiratory syndrome coronavirus 2 (2019-nCoV) (SARS-CoV-2), UniProt P0DTD1) (assay: biochemical). Details: IC50; compounds evaluated at 0.015-300 μM.

| Compound | IC50 [µM] |
| --- | --- |
| COc1c(O)cc2oc(-c3ccc(O)c(O)c3)cc(=O)c2c1O [6-methoxyluteolin] | 4 |

Same assay, conditions: compound at 17 μM, duplicates, 20 min pre-incubation

| Compound | Activity (% enzyme activity by fluorescence relative to initial enzyme activity) |
| --- | --- |
| COc1cc2c(c3c1CC[C@@H](c1ccccc1)O3)[C@H]1c3c(cc(O)c(C)c3OC)O[C@](c3ccccc3)(O2)[C@@H]1O [Dracoflavan B1] | ++ (enzyme activity as indicated by fluorescence measurements ≥10% and <80%) |

Same assay, conditions: compound at 17 μM, duplicates, 20 min pre-incubation; read-out: Activity (% enzyme activity by fluorescence relative to initial enzyme activity)

| Compound | remaining activity at 17 µM [%] |
| --- | --- |
| O=c1c(O)c(-c2ccc(O[C@@H]3O[C@H](CO)[C@@H](O)[C@H](O)[C@H]3O)cc2)oc2cc(O)cc(O)c12 [Kaempferol-4′-O-beta-D-glucopyranoside] | 10 to 80 |
| O=c1c(O)c(-c2ccc(O)cc2)oc2cc(O)cc(O)c12 [Kaempferol] | > 80 |
| O=c1c(-c2ccc(O)cc2)coc2cc(O)cc(O)c12 [Genistein] | > 80 |
| O=c1c(O)c(-c2ccc(O)cc2O)oc2cc(O)cc(O)c12 [morin] | > 80 |
| CC(C)=CCc1c2c(c(O)c3c(=O)c(-c4ccc(O)c(O)c4)coc13)CC(C(C)(C)O)O2 (stereo not shown) [furowanin A] | 10 to 80 |

Same assay, conditions: compounds evaluated at 0.015-300 μM; read-out: IC50

| Compound | IC50 [µM] |
| --- | --- |
| COc1cc2c(c3c1CC[C@@H](c1ccccc1)O3)[C@H]1c3c(cc(O)c(C)c3OC)O[C@](c3ccccc3)(O2)[C@@H]1O [Dracoflavan B1] | 17 |
| O=c1c(O)c(-c2ccc(O[C@@H]3O[C@H](CO)[C@@H](O)[C@H](O)[C@H]3O)cc2)oc2cc(O)cc(O)c12 [Kaempferol-4′-O-beta-D-glucopyranoside] | 12 |
| CC(C)=CCc1c2c(c(O)c3c(=O)c(-c4ccc(O)c(O)c4)coc13)CC(C(C)(C)O)O2 (stereo not shown) [furowanin A] | 7 |

Same assay, conditions: read-out: Activity (% enzyme activity by fluorescence relative to initial enzyme activity), compound at 17 μM, duplicates, 20 min pre-incubation

| Compound | remaining activity at 17 µM [%] |
| --- | --- |
| CC(C)=CCc1c(O)cc(O)c2c1O[C@H](c1ccc3c(c1)C=CC(C)(C)O3)CC2=O [Euchrenone A10] | > 80 |
| C=C(C)[C@H](CC=C(C)C)Cc1c(O)cc(OC)c2c1O[C@H](c1ccc(O)cc1O)[C@H](O)C2=O [Kushenol N] | > 80 |
| CC(C)=CCc1c(-c2ccc(O)cc2O)oc2cc(O)cc(O)c2c1=O [Albanin A] | > 80 |
| COc1c(O)cc2oc(-c3cc(CC=C(C)C)c(O)c(CC=C(C)C)c3)c(OC)c(=O)c2c1O [5,7,4′-Trihydroxy-3,6-dimethoxy-3′,5′-diprenylflavone] | > 80 |
| CC(C)=CCCC1(C)C=Cc2c(cc3c(c2O)C(=O)C[C@@H](c2ccc(O)cc2O)O3)O1 (stereo partly shown) [Kuwanol C] | 10 to 80 |
| CC(C)=CCC/C(C)=C/Cc1c(O)ccc(-c2oc3cc(O)cc(O)c3c(=O)c2CC=C(C)C)c1O [3′-Geranyl-3-prenyl-2′,4′,5,7-tetrahydroxyflavone] | 10 to 80 |
| CC(C)=CCc1c(O)cc2c(c1O)C(=O)C[C@@H](c1ccc(O)cc1)O2 [6-Prenylnaringenin] | > 80 |
| COc1c(CC=C(C)C)c(O)cc2c1CC(c1ccc(O)cc1O)CO2 (stereo not shown) [Glyasperin C] | > 80 |
| CC(C)=CCc1c(O)cc(O)c2c1O[C@H](c1ccc(O)cc1)CC2=O [8-Prenylnaringenin] | 10 to 80 |
| CC(C)=CCc1c(O)cc(O)c2c1O[C@H](c1ccc(O)cc1)[C@@H](O)C2=O [neophellamuretin] | > 80 |
| CC(C)=CCc1c(O[C@@H]2O[C@H](CO)[C@@H](O)[C@H](O)[C@H]2O)cc(O)c2c1O[C@H](c1ccc(O)cc1)[C@@H](O)C2=O [Phellamurin] | > 80 |
| CC(C)=CCc1c(O[C@@H]2O[C@H](CO)[C@@H](O)[C@H](O)[C@H]2O)cc(O)c2c(=O)c(O[C@@H]3O[C@@H](C)[C@H](O)[C@@H](O)[C@H]3O)c(-c3ccc(O)cc3)oc12 [Epimedoside A] | > 80 |
| CC(C)=CCc1c(O)cc(O)c2c(=O)c3c(oc12)-c1ccc(O)cc1OC3C=C(C)C (stereo not shown) [Cyclomulberrin] | 10 to 80 |
| COc1ccc([C@@H]2CC(=O)c3c(O)cc(O)c(CC=C(C)C)c3O2)cc1O (stereo in doubt) [5,7,3′-Trihydroxy-4′-methoxy-8-prenylflavanone] | > 80 |
| CC(C)=CCc1c(O)cc(O)c2c(=O)c(-c3ccc(O)cc3)coc12 [Lupiwighteone] | > 80 |
| O=C1c2c(O)cc(O)cc2O[C@H](c2ccc(O)cc2O)[C@H]1O [Dihydromorin] | > 80 |
| CC(C)=CCc1c(O)cc(O)c2c1O[C@H](c1ccccc1)[C@@H](O)C2=O [Glepidotin B] | > 80 |
| CC(C)=CCc1c(O)ccc2c(=O)cc(-c3ccc(O)c(O)c3)oc12 [Corylifol C] | > 80 |
| C=C(C)C(O)Cc1c(O)c(CC=C(C)C)c(O)c2c(=O)c(-c3ccc(O)c(O)c3)coc12 (stereo not shown) [millewanin H] | 10 to 80 |
| CC(C)=CCc1c(O)c(CC=C(C)C)c2occ(-c3ccc(O)cc3O)c(=O)c2c1O [8-Prenylluteone] | > 80 |

| Compound | remaining activity at 17 µM [%] |
| --- | --- |
| COc1c(CC=C(C)C)c(O)cc2c1C[C@H](c1ccc(O)c(CC=C(C)C)c1O)CO2 [Licoricidin] | > 80 |
| COc1c2c(cc(O)c1CC=C(C)C)OCC(c1ccc(O)cc1O)=C2 [Dehydroglyasperin C] | > 80 |
| CC(C)=CCc1cc(-c2coc3c(CC=C(C)C)c(O)c(CC=C(C)C)c(O)c3c2=O)ccc1O [Euchrenone B1] | > 80 |
| CC(C)=CCc1cc([C@H]2Oc3cc(O)cc(O)c3C(=O)[C@@H]2O)c(O)c(CC=C(C)C)c1O [cathayanon I] | 10 to 80 |
| C=C(C)[C@H](CC=C(C)C)Cc1c(O)cc(O)c2c1O[C@H](c1ccccc1O)CC2=O [Kushenol A] | > 80 |
| CC(C)=CCc1c(O)cc(O)c2c(=O)c(O[C@@H]3O[C@@H](C)[C@H](O)[C@@H](O)[C@H]3O)c(-c3ccc(O)cc3)oc12 [Baohuoside II] | > 80 |
| CC(C)=CCc1cc([C@@H]2CC(=O)c3ccc(O)c(CC=C(C)C)c3O2)cc(CC=C(C)C)c1O [(−)-Sophoranone] | 10 to 80 |
| COc1c(CC=C(C)C)c(O)cc(O)c1-c1coc2cc(O)ccc2c1=O [Glicoricone] | > 80 |
| CC(C)=CCc1cc(-c2cc(=O)c3c(O)cc(O)c(CC=C(C)C)c3o2)cc(O)c1O [Epimedokoreanin B] | > 80 |
| CC(C)=CCc1c(-c2ccc(O)cc2O)oc2cc3c(c(O)c2c1=O)C=CC(C)(C)O3 [Cudraflavone B] | 10 to 80 |
| COc1ccc(-c2oc3c(CC=C(C)C)c(O[C@@H]4O[C@H](CO)[C@@H](O)[C@H](O)[C@H]4O)cc(O)c3c(=O)c2O[C@@H]2O[C@@H](C)[C@H](O)[C@@H](O)[C@H]2O[C@@H]2O[C@H](CO)[C@@H](O)[C@H](O)[C@H]2O)cc1 [Epimedin A] | 10 to 80 |
| COc1cc(O)c(CC=C(C)C)c2oc(-c3ccc(O)cc3)c(O)c(=O)c12 [Sophoflavescenol] | > 80 |
| COc1c(-c2ccc(O)c(O)c2)oc2c(CC=C(C)C)c(O)c(CC=C(C)C)c(O)c2c1=O [broussoflavonol B] | > 80 |
| CC(C)=CCc1c(O)cc(O)c2c1OC(c1cc3c(cc1O)O[C@@H](c1ccc(O)cc1)[C@@H]3c1cc(O)cc(O)c1)CC2=O (stereo partly shown) [Sophoraflavanone H] | > 80 |
| COc1cc2oc(-c3ccc(O)cc3O)c(CC=C(C)C)c(=O)c2c(O)c1/C=C/C(C)C [Artocarpin] | > 80 |
| COc1c(O)cc2oc(-c3ccc(O)c(O)c3)cc(=O)c2c1O [6-methoxyluteolin] | 10 to 80 |
| CC(C)=CCc1cc(-c2coc3cc(O)cc(O)c3c2=O)cc(CC=C(C)C)c1O [3′,5′-Diprenylgenistein] | > 80 |
| COc1ccc(-c2coc3cc(O)c(CC=C(C)C)c(O)c3c2=O)c(O)c1 [Gancaonin N] | > 80 |
| CC(C)=CCc1c(O)cc2c(c1O)C(=O)[C@H](O)[C@@H](c1ccc(O)cc1)O2 [Shuterin] | > 80 |
